Here are results for nine substances from patent publication US11214803B2, “Modulators of YAP1 expression” (Ionis Pharmaceuticals, Inc., priority 2019, dated 2022).

Strand notation (5' to 3'): a small letter for the sugar, then the base; units joined by * are phosphorothioate-linked, units joined directly phosphodiester-linked; [ ] holds rarer units or linkages, { } end groups; capitals alone tell only the bases. k = constrained ethyl (cEt); [5mC] = 5-methylcytosine; d = 2'-deoxy (DNA)

Data set [1] deals with Yap1 mRNA. Description: Antisense inhibition of human Yap1 in A-431 cells by cEt gapmers, single dose (Example 3, RTS36584). Format: cell-based. The essentials:
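A-431 cells were treated by free uptake with 2,000 nM modified oligonucleotide (3-10-3 cEt gapmers, full phosphorothioate, 5-methylcytosines) for about 48 hours. Yap1 mRNA was quantified by real-time RT-PCR, normalized to RiboGreen total RNA, and expressed as % of untreated control; asterisked values mark oligonucleotides targeting the amplicon region.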

Data set [2] relates to Yap1 mRNA. Description: Dose-dependent inhibition of human Yap1 in A-431 cells (Example 8, 10,000 cells per well, RTS4814). To be noted: for Yap1 mRNA, % UTC: A-431 cells, 10,000 cells per well; for IC50 / % UTC (Yap1 mRNA): A-431 cells. Format: cell-based. The essentials: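 A-431 cells (10,000/well) dosed with modified oligonucleotides by free uptake; Yap1 mRNA measured ~48 h later with primer-probe set RTS4814, normalized to total RNA (RIBOGREEN). Values are % of untreated control; IC50 from linear regression on log/linear plot.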

[3] abbreviates: Table 27, Yap1 mRNA by 3-10-3 cEt gapmers targeting SEQ ID NO.: 1, and 2, percent of untreated control.
Where [4] appears, read: 31.3 nM, free uptake, approximately 48 hours, RTS4814.
Where [5] appears, read: 125.0 nM, free uptake, approximately 48 hours, RTS4814.
[6] abbreviates: 500.0 nM, free uptake, approximately 48 hours, RTS4814.
[7] abbreviates: 2000.00 nM, free uptake, approximately 48 hours, RTS4814.
The mark [8] stands for this setting: free uptake, approximately 48 hours, RTS4814, linear regression on log/linear plot.
Where [9] appears, read: Table 28, Yap1 mRNA as percent of untreated control, 3-10-3 cEt gapmers targeting SEQ ID NO.: 1, and 2.
Setting [10] is: Table 35, Yap1 mRNA as percent of untreated control, 3-10-3 cEt gapmers targeting SEQ ID NO: 1 and 2, single dose.

The term IC50 denotes the concentration needed to halve the response being measured. Higher therefore signals lower potency. With “1074509 (kT*kG*kT*dT*dA*dT*dG*dT*dT*dT*dG*dG*dG*kT*kG*kT; antisense) [compound 1074509]”, in the data set on Yap1 mRNA [1] (setting [3]), the “YAP1 (% UTC)” value amounted to 5 % UTC. In addition, the “Yap1 mRNA, % UTC” value with Yap1 mRNA [2] (setting [4]) worked out at 44 % UTC; with Yap1 mRNA [2] (setting [5]) it was 12 % UTC; in the data set with Yap1 mRNA [2] (setting [6]) it was 6 % UTC; in the data set on Yap1 mRNA [2] (setting [7]), 5 % UTC. In the data set on Yap1 mRNA [2] (setting [8]), this substance displayed an IC50 of less than 20 nM.

Regarding “1076366 (antisense kA*kT*kT*dT*dA*d[5mC]*dA*dT*dG*dA*dG*dA*dG*kG*kA*kG) [compound 1076366]”, the “YAP1 (% UTC)” value in the data set with Yap1 mRNA [1] (setting [9]) is 4 % UTC. The “Yap1 mRNA, % UTC” value with Yap1 mRNA [2] (setting [4]) worked out at 63 % UTC; in the data set with Yap1 mRNA [2] (setting [5]), 25 % UTC; in the data set with Yap1 mRNA [2] (setting [6]), 8 % UTC; with Yap1 mRNA [2] (setting [7]) it was 4 % UTC. The IC50 with Yap1 mRNA [2] (setting [8]) stood at 40 nM.

As to “1074229 (antisense kG*kA*kA*dG*dA*d[5mC]*dT*dG*dT*d[5mC]*dG*dA*dA*kG*kA*kT) [compound 1074229]”, in the data set on Yap1 mRNA [1] (setting [10]), the “YAP1 (% UTC)” value was found to be 5 % UTC. In addition, the “% UTC (Yap1 mRNA)” value was 58 % UTC in the data set with Yap1 mRNA [2] (31.3 nM), 24 % UTC in the data set with Yap1 mRNA [2] (125.0 nM), 9 % UTC with Yap1 mRNA [2] (500.0 nM) and 5 % UTC in the data set with Yap1 mRNA [2] (2000.00 nM). This substance showed an IC50 in the data set on Yap1 mRNA [2] (Yap1 mRNA) of less than 20 nM.

Consider “1074549 (DNA kT*kA*kT*d[5mC]*dT*dA*d[5mC]*d[5mC]*dG*dT*dA*dT*dG*k[5mC]*k[5mC]*k[5mC]; antisense) [compound 1074549]”, for which the “YAP1 (% UTC)” value with Yap1 mRNA [1] (setting [10]) is listed as 6 % UTC. The “% UTC (Yap1 mRNA)” value was determined as 67 % UTC in the data set on Yap1 mRNA [2] (31.3 nM), 31 % UTC in the data set on Yap1 mRNA [2] (125.0 nM), 12 % UTC with Yap1 mRNA [2] (500.0 nM) and 7 % UTC in the data set with Yap1 mRNA [2] (2000.00 nM). Moreover, the IC50 with Yap1 mRNA [2] (Yap1 mRNA) was 100 nM.

“1074446 (kA*kT*kG*dA*dT*dA*dG*d[5mC]*dA*d[5mC]*dT*dA*dG*kG*kA*kG; antisense) [compound 1074446]”: the “YAP1 (% UTC)” value with Yap1 mRNA [1] (setting [9]) turned out to be 3 % UTC. The “Yap1 mRNA, % UTC” value in the data set on Yap1 mRNA [2] (setting [4]) is given as 39 % UTC; in the data set on Yap1 mRNA [2] (setting [5]), 11 % UTC; in the data set with Yap1 mRNA [2] (setting [6]) it was 5 % UTC; in the data set on Yap1 mRNA [2] (setting [7]), 3 % UTC. For the same substance, in the data set with Yap1 mRNA [2] (setting [8]), the IC50 is less than 20 nM.

For the substance “1076556 (kG*kT*kA*dT*dA*dG*dG*d[5mC]*dA*dG*dA*dA*dG*k[5mC]*kA*kA; antisense) [compound 1076556]”, in the data set on Yap1 mRNA [1] (Table 26, Yap1 mRNA by 3-10-3 cEt gapmers targeting SEQ ID NO.: 1, and 2, percent of untreated control), the “YAP1 (% UTC)” value is 9 % UTC. For the same substance, the “Yap1 mRNA, % UTC” value is listed as 72 % UTC in the data set on Yap1 mRNA [2] (setting [4]), 46 % UTC with Yap1 mRNA [2] (setting [5]), 19 % UTC in the data set on Yap1 mRNA [2] (setting [6]) and 11 % UTC in the data set on Yap1 mRNA [2] (setting [7]). In the data set on Yap1 mRNA [2] (setting [8]), this substance returned an IC50 of 100 nM.

Take “1074548 (kA*kT*k[5mC]*dT*dA*d[5mC]*d[5mC]*dG*dT*dA*dT*dG*d[5mC]*k[5mC]*k[5mC]*kA; antisense) [compound 1074548]”: the “YAP1 (% UTC)” value with Yap1 mRNA [1] (Table 34, Yap1 mRNA as percent of untreated control, 3-10-3 cEt gapmers targeting SEQ ID NO: 1 and 2, single dose) was found to be 4 % UTC. Also, the “% UTC (Yap1 mRNA)” value in the data set with Yap1 mRNA [2] (31.3 nM) was 50 % UTC; in the data set with Yap1 mRNA [2] (125.0 nM) it was 15 % UTC; with Yap1 mRNA [2] (500.0 nM), 7 % UTC; in the data set on Yap1 mRNA [2] (2000.00 nM), 8 % UTC. The substance also returned an IC50 in the data set with Yap1 mRNA [2] (Yap1 mRNA) of less than 20 nM.

For the substance “1076397 (antisense kA*kA*k[5mC]*d[5mC]*dT*dA*dT*dA*dT*dT*dT*dG*dA*kG*k[5mC]*k[5mC]) [compound 1076397]”, the “YAP1 (% UTC)” value with Yap1 mRNA [1] (setting [3]) was 4 % UTC. The “Yap1 mRNA, % UTC” value with Yap1 mRNA [2] (setting [4]) worked out at 43 % UTC; with Yap1 mRNA [2] (setting [5]), 14 % UTC; with Yap1 mRNA [2] (setting [6]), 5 % UTC; in the data set with Yap1 mRNA [2] (setting [7]), 4 % UTC. The substance further yielded an IC50 in the data set with Yap1 mRNA [2] (setting [8]) of less than 20 nM.

Turning to “1074221 (antisense kG*kA*kA*dT*dG*dA*dG*d[5mC]*dT*d[5mC]*dG*dA*dA*k[5mC]*kA*kT) [compound 1074221]”, the “YAP1 (% UTC)” value in the data set on Yap1 mRNA [1] (setting [3]) is recorded as 6 % UTC. Further, the “Yap1 mRNA, % UTC” value is 75 % UTC in the data set on Yap1 mRNA [2] (setting [4]), 38 % UTC with Yap1 mRNA [2] (setting [5]), 14 % UTC in the data set with Yap1 mRNA [2] (setting [6]) and 7 % UTC in the data set on Yap1 mRNA [2] (setting [7]). For the same substance, the IC50 in the data set with Yap1 mRNA [2] (setting [8]) stood at 100 nM.
